Experimental data reported in patent US10758585B2, “Beautyberry total glycosides extract and preparation method and use thereof” (Suzhou Neupharma Co., Ltd., priority 2012, dated 2020).

Tested on: SH-SY5Y nerve cells
Experiment: Protective effect against MPP+ induced SH-SY5Y nerve cell injury (MTT cell viability)
Assay type: cell-based
Conditions: 500 μM MPP+; for protective effect against MPP+ induced SH-SY5Y nerve cell injury: 24 h pre-protection + 24 h co-incubation, MTT, overall statement
Procedure: SH-SY5Y nerve cells were purchased from ATTC (American Type Culture Collection, Rockville, Md., U.S.A). The cells was cultured with RPMI1640 medium (a product of Hyclone Company) containing 10% fetal bovine serum, 2 mM/L glutamine, as well as 1% penicillium and streptomycin doubleantibiotics, in the incubator at 37° C. and 5% CO2.
The extract tested was the beautyberry total glycosides extract prepared in Example 5 which contained 37.75 wt % verbascoside and 28.01 wt % Arenarioside. The beautyberry total glycosides extract prepared in Example 5, and stock solutions of verbascoside and Arenarioside prepared in 2.1 above were dissolved and formulated respectively with phosphate buffer (PBS) and the resulted solutions were diluted to test concentrations with RPMI 1640 culture medium. MPP+ solution was prepared by dissolving MPP+ to 1 mM with PBS. The test concentration of MPP+ was 500 μM diluted with the culture medium. MTT was formulated with PBS, at a concentration of 0.5 mg/ml, and was filtered to remove bacteria using a 0.22 μm filter membrane prior to use.
SH-SY5Y nerve cells at a logarithmic growth phase were collected and counted with a cell counter. 200 μl of cell suspension with 4×10^4/ml was added into each well of the 96-well plate (converted to 8×10^3/200 μl of the culture medium) and was subjected to adherent culture in the incubator at 37° C. and 5% CO2 for 24 hours. The experiment included 11 groups: (1) a blank control group, wherein RPMI 1640 culture medium was used, and incubation at 5% CO2 and 37° C. was performed for 24 h; (2) a model group, wherein RPMI 1640 culture medium containing 500 μM MPP+ was used, and incubation at 5% CO2 and 37° C. was performed for 24 h; (3) a high dose group (16 μg/mL), a medium dose group (1.6 μg/mL), and a low dose group (0.16 μg/mL) (equivalent to 10 μM, 1 μM, and 0.1 μM verbascoside, respectively) of tests of the extract of Example 5 in the present invention; (4) a high dose group (10 μM), amedium dose group (1 μM), and a low dose group (0.1 μM) of theverbascoside monomer prepared above; and (5) a high dose group (10 μM), a medium dose group (1 μM), and a low dose group (0.1 μM) of the Arenarioside monomer prepared above; wherein, in each experimental dosage groups of (3), (4), and (5), mother liquid of the drug to be tested was firstly diluted to a set dosage concentration with the RPMI 1640 culture medium, then added at 100 μL into the cells, which were pre-protected at 5% CO2 and 37° C. for 24 h, then supernatant was carefully pipetted and discarded, then, mother liquid of the drug to be tested was diluted to a set dosage concentration with the RPMI 1640 culture medium containing 500 μM MPP+ that was formulated beforehand, then added at 100 μL into the cells, which were proceeded to incubation at 5% CO2 and 37° C. for 24 h. Supernatant was carefully pipetted and discarded, placed upside-down on an absorbent paper and patted dry. After the blank group and themodel group were incubated for 24 h, operations were performed using the same method. 5 parallel wells were provided for each group of the samples. MTT at a concentration of 0.5 mg/ml was added into each well of each group above, and incubated at 5% CO2 and 37° C. for 4 h. Supernatant was carefully pipetted and discarded, placed upside-down on an absorbent paper and patted dry. 200 μL of dimethyl sulfoxide (DMSO) was added into each well, and shaken for 300 s. The absorbance value of each well was determined at OD 570 nm, and cell viability was calculated according to the following formula: […]

Row | Compound | cell viability compared with the model group (0.1 μM monomer) | cell viability compared with the model group (1 μM monomer) | protective effect against MPP+ induced SH-SY5Y nerve cell injury
1 | CC1O[C@@H](O[C@@H]2C(O)[C@H](OCCc3ccc(O)c(O)c3)OC(CO[C@@H]3OC[C@@H](O)[C@@H](O)C3O)[C@@H]2OC(=O)/C=C/c2ccc(O)c(O)c2)C(O)[C@@H](O)[C@H]1O (stereo partly drawn) [Arenarioside] | significant higher cell viability as compared with the model group (p<0.01) | significant higher cell viability as compared with the model group (p<0.01) | has a protective effect
2 | C[C@@H]1O[C@@H](O[C@@H]2[C@@H](O)[C@H](OCCc3ccc(O)c(O)c3)O[C@H](CO)[C@H]2OC(=O)/C=C/c2ccc(O)c(O)c2)[C@H](O)[C@H](O)[C@H]1O [verbascoside] | significant difference compared to the model group (p<0.01) | significant difference compared to the model group (p<0.01) | has a protective effect
